The text below walks through data of US11517530B2, “Therapeutic agents specifically delivered by exosomes for cancer treatment” (The Board of Trustees of the Leland Stanford Junior …, priority 2017, dated 2022).

The structures appear in SMILES notation.

The test system of series [1] is orthotopically implanted BT474 tumors. Kind of series: In vivo assay for EXO-DEPT EV functionality, tumor growth. Also noted: species or system nu/nu mice. As to conditions: 2×10^9 EVs i.p., CNOB 3.3 mg/kg i.v. Here is the method:
In vivo assays for EXO-DEPT EV functionality. All animal experiments were performed in accordance with protocols approved by Stanford University Institutional Animal Care and Use Committee. Number of mice required for this study was determined by power analysis using the G*Power 3.1.5 power calculator (Universitat Dusseldorf) for F-tests of one-way ANOVA by setting Type I error at 5% (alpha=0.05); power was kept at 0.8, and the number of treatment groups=5. The effect size f was calculated as 0.707. This number was then used to determine total sample size of 30 with 6 mice per treatment group (n=6). […] Tumor size was monitored by caliper at two-day intervals, and tumor volume was calculated using the formula: tumor width^2×its length/2. […]
The effect of administration of EXO-DEPT EVs along with CNOB was tested on orthotopically implanted BT474 tumors in athymic mice; the treatment schedule (FIG. 4E) was guided by earlier PK/PD studies. […] After measurable implanted tumors in mice were detected, they were randomly allocated into 5 treatment groups (n=6): untreated; loaded EVs only; CNOB only; undirected loaded EVs+CNOB; and EXO-DEPT-EVs+CNOB. […]
Each mouse was measured at nine time periods, days 0,3,7,11,16,19,24,28,32. A linear regression of tumor burden versus day was fit for each mouse, by ordinary least squares, and its slope calculated. s[i]=slope of mouse[i]'s linear regression

The subject of series [2] is 4T1 murine mammary cells that endogenously generated HChrR6 enzyme. As to conditions: initial studies; cited from earlier work.
The conditions of series [3]: earlier PK/PD studies; cited from earlier work.

Regarding `O=c1c(Cl)c2oc3cc([N+](=O)[O-])ccc3nc-2c2ccccc12` [CNOB, 6-chloro-9-nitro-5-oxo-5H-benzo-(a)-phenoxazine], the tumor growth entry in series [1] (versus controls) was “no significant difference”. Besides, in series [1] (days 0-32), the “mean slope of linear regression of tumor burden versus day” value is 7.24. The survival of mice result in series [2] is “marked improvement”.

Consider `Nc1ccc2nc3c4ccccc4c(=O)c(Cl)c-3oc2c1` [MCHB, 9-p amino-6-chloro-5H-benzo′a″phenoxazine-5-one], for which the half-life in plasma in series [3] was 8.3 h.
